Measured values published in patent US9073940B2, “Tricyclic pyrazol amine derivatives” (MERCK SERONO SA, priority 2009, dated 2015).
pIC50: −log10 of the molar value. Structures can show the parent of a compound that is named as a salt.

These molecules were tested on 4 PI3K isoforms (Human recombinant GST-PI3K) (assay: PI3K scintillation proximity assay, best IC50 obtained with the four isoforms (alpha, beta, delta, gamma)). Conditions: best IC50 obtained with the four isoforms of PI3K; read-out: Best potency measured on the 4 PI3K isoforms.
Format: biochemical

pIC50 | Structure (SMILES)
5.72 | O=C(c1nn(C2CCCNCC2)c2c1CS(=O)(=O)c1ccccc1-2)N1CCOCC1 (centres unmarked) [Example 82]
6.96 | O=C(c1nn(-c2ccc(CN3CCCCC3)cc2)c2c1CS(=O)(=O)c1ccccc1-2)N1CCOCC1 [Example 169, 3-(Morpholin-4-ylcarbonyl)-1-[4-(piperidin-1-ylmethyl)phenyl]-1,4-dihydrothiochromeno[4,3-c]pyrazole 5,5-dioxide]
5.52 | O=C(c1nn(C2CCCNC2)c2c1CS(=O)(=O)c1ccccc1-2)N1CCOCC1 (centres unmarked) [Example 75]
5.69 | O=C(c1nn([C@@H]2CCN(C3CCOCC3)C2)c2c1CS(=O)(=O)c1c(F)cccc1-2)N1CCOCC1 (single isomer, unassigned) [Example 353, 6-fluoro-3-(morpholin-4-ylcarbonyl)-1-[1-(tetrahydro-2H-pyran-4-yl)pyrrolidin-3-yl]-1,4-dihydrothiochromeno[4,3-c]pyrazole 5,5-dioxide hydrochloride salt]
6.92 | O=C(c1nn(C2CCN(CCN3CC[C@@H](F)C3)C2)c2c1CS(=O)(=O)c1ccccc1-2)N1CCOCC1 (stereo partly drawn) [Example 308, 1-(1-{2-[(3R)-3-Fluoropyrrolidin-1-yl]ethyl}pyrrolidin-3-yl)-3-(morpholin-4-ylcarbonyl)-1,4-dihydrothiochromeno[4,3-c]pyrazole 5,5-dioxide]
7.68 | COC1CCN(CCN2CCC[C@H](n3nc(C(=O)N4CCOCC4)c4c3-c3ccccc3S(=O)(=O)C4)C2)CC1 (stereo in doubt) [Example 460, 1-{1-[2-(4-methoxypiperidin-1-yl)ethyl]piperidin-3-yl}-3-(morpholin-4-ylcarbonyl)-1,4-dihydrothiochromeno[4,3-c]pyrazole 5,5-dioxide]
7.57 | COc1ccc2c(c1)S(=O)(=O)Cc1c(C(=O)N3CCOCC3)nn([C@H]3CCCN(CCC4CCOCC4)C3)c1-2 (single isomer, unassigned) [Example 369]
6.49 | O=C(c1nn(C2CCCN(CCF)C2)c2c1CS(=O)(=O)c1ccccc1-2)N1CCOCC1 (single isomer, unassigned) [Example 221, 1-[1-(2-fluoroethyl)piperidin-3-yl]-3-(morpholin-4-ylcarbonyl)-1,4-dihydrothiochromeno[4,3-c]pyrazole 5,5-dioxide]
6.32 | O=C(c1nn(-c2ccccc2)c2c1CS(=O)(=O)c1nccn1-2)N1CCOCC1 [Example 485]
6.52 | O=C(c1nn(C2CCCCC2)c2c1CS(=O)(=O)c1sccc1-2)N1CCOCC1 [Example 201, 1-Cyclohexyl-3-(morpholin-4-ylcarbonyl)-1,4-dihydrothieno[3′,2′:5,6]thiopyrano[4,3-c]pyrazole 5,5-dioxide]
6.47 | CN1CCN(Cc2ccc(-n3nc(C(=O)N4CCOCC4)c4c3-c3ccccc3S(=O)(=O)C4)cn2)CC1 [Example 252, 1-{6-[(4-Methylpiperazin-1-yl)methyl]pyridin-3-yl}-3-(morpholin-4-ylcarbonyl)-1,4-dihydrothiochromeno[4,3-c]pyrazole 5,5-dioxide]
6.25 | O=C(c1nn(-c2cccc(CN3CCC(F)(F)CC3)c2)c2c1CS(=O)(=O)c1ccccc1-2)N1CCOCC1 [Example 260, 1-{3-[(4,4-Difluoropiperidin-1-yl)methyl]phenyl}-3-(morpholin-4-ylcarbonyl)-1,4-dihydrothiochromeno[4,3-c]pyrazole 5,5-dioxide]
5.41 | O=C(c1nn(-c2ccccc2)c2c1C(CC1CC1)S(=O)(=O)c1ccccc1-2)N1CCOCC1 (centres unmarked) [Example 58, 4-(cyclopropylmethyl)-3-(morpholin-4-ylcarbonyl)-1-phenyl-1,4-dihydrothiochromeno[4,3-c]pyrazole 5,5-dioxide]
6.52 | Cc1noc(C)c1-c1cccc(-n2nc(C(=O)N3CCOCC3)c3c2-c2ccccc2S(=O)(=O)C3)c1 [Example 184, 1-[3-(3,5-Dimethylisoxazol-4-yl)phenyl]-3-(morpholin-4-ylcarbonyl)-1,4-dihydrothiochromeno[4,3-c]pyrazole 5,5-dioxide]
6.65 | O=C(c1nn(C2CCOCC2)c2c1CS(=O)(=O)c1ccccc1-2)N1CCOCC1 [Example 32, 3-(morpholin-4-ylcarbonyl)-1-(tetrahydro-2H-pyran-4-yl)-1,4-dihydrothiochromeno[4,3-c]pyrazole 5,5-dioxide]
5.39 | O=C(O)c1nn(-c2ccc(CN3CCOCC3)cc2)c2c1CS(=O)(=O)c1ccccc1-2 [Example 238, 1-[4-(Morpholin-4-ylmethyl)phenyl]-1,4-dihydrothiochromeno[4,3-c]pyrazole-3-carboxylic acid 5,5-dioxide]
7.60 | O=C(c1nn([C@H]2CCCN(C3CCCNC3)C2)c2c1CS(=O)(=O)c1ccccc1-2)N1CCOCC1 (some centres unmarked) [Example 469]
7.55 | COc1ccc2c(c1)-c1c(c(C(=O)N3CCOCC3)nn1C1CCCN(CCN3CCOCC3)C1)CS2(=O)=O (centres unmarked) [Example 453, 8-methoxy-3-(morpholin-4-ylcarbonyl)-1-[1-(2-morpholin-4-ylethyl)piperidin-3-yl]-1,4-dihydrothiochromeno[4,3-c]pyrazole 5,5-dioxide]
6.29 | O=C(c1nn(C2CCC(O)CC2)c2c1CS(=O)(=O)c1ccccc1-2)N1CCOCC1 (centres unmarked) [Example 98, 4-[3-(Morpholin-4-ylcarbonyl)-5,5-dioxidothiochromeno[4,3-c]pyrazol-1(4H)-yl]cyclohexanol]
6.45 | O=C(c1nn(C2CCN(CC3CCOC3)C2)c2c1CS(=O)(=O)c1ccccc1-2)N1CCOCC1 (centres unmarked) [Example 303, 3-(Morpholin-4-ylcarbonyl)-1-[1-(tetrahydrofuran-3-ylmethyl)pyrrolidin-3-yl]-1,4-dihydrothiochromeno[4,3-c]pyrazole 5,5-dioxide]
6.87 | Cc1nc(CN2CCCC(n3nc(C(=O)N4CCOCC4)c4c3-c3ccccc3S(=O)(=O)C4)C2)no1 (centres unmarked) [Example 295, 1-{1-[(5-Methyl-1,2,4-oxadiazol-3-yl)methyl]piperidin-3-yl}-3-(morpholin-4-ylcarbonyl)-1,4-dihydrothiochromeno[4,3-c]pyrazole 5,5-dioxide]
5.89 | O=C(c1nn(-c2ccccc2)c2c1CS(=O)(=O)c1ccc(Br)cc1-2)N1CCOCC1 [Example 64]
5.40 | O=C(c1nn(-c2ccc(N3CCOCC3)cc2)c2c1CS(=O)(=O)c1ccccc1-2)N1CCOCC1 [Example 155, 3-(Morpholin-4-ylcarbonyl)-1-(4-morpholin-4-ylphenyl)-1,4-dihydrothiochromeno[4,3-c]pyrazole 5,5-dioxide]
5.80 | O=C(c1nn(-c2ccccn2)c2c1CS(=O)(=O)c1ccccc1-2)N1CCOCC1 [Example 11, 3-(morpholin-4-ylcarbonyl)-1-pyridin-2-yl-1,4-dihydrothiochromeno[4,3-c]pyrazole 5,5-dioxide]
6.45 | O=C(c1nn(C2CCOC2)c2c1CS(=O)(=O)c1c(F)cccc1-2)N1CCOCC1 (centres unmarked) [Example 365, 6-Fluoro-3-(morpholin-4-ylcarbonyl)-1-(tetrahydrofuran-3-yl)-1,4-dihydrothiochromeno[4,3-c]pyrazole 5,5-dioxide]

Same assay, conditions: inhibition at 20 μM

Structure (SMILES) | Best potency measured on the 4 PI3K isoforms, % inh @20 μM [% inh @20 μM]
O=C(c1nn(-c2ccccc2)c2c1C[S+]([O-])c1ccccc1-2)N1CCOCC1 (centres unmarked) [Example 330, 3-(Morpholin-4-ylcarbonyl)-1-phenyl-1,4-dihydrothiochromeno[4,3-c]pyrazole 5-oxide] | 18
